The nature of data set [1]: Aqueous solubility of topiramate. The class given is physicochemical. The settings on record: 37 °C, thermodynamic from solid. On the procedure: Aqueous solubility is determined by adding the therapeutic agent to stirred or agitated water maintained in a constant temperature bath at a temperature of 37 degrees centigrade until no more agent dissolves. The resulting solution saturated with active agent is then filtered, typically under pressure through a 0.8-micron Millipore filter, and the concentration in solution is measured by any appropriate analytical method including gravimetric, ultraviolet spectrophometry, chromatography, and the like.

For data set [2] the following is noted: Physicians' Desk Reference; cited from earlier work.

Each structure is given as a SMILES string. Converted amounts (≈) assume the structure as drawn. Where two headings read alike, the source gives them in different places.

What is called solubility is the concentration that dissolves in the medium under given conditions. As for `CC1(C)O[C@@H]2[C@@H](CO[C@@]3(COS(N)(=O)=O)OC(C)(C)O[C@@H]23)O1` [Topiramate, topiramate], the solubility is 12 mg/mL (≈ 35.4 mM) in data set [1] (de-ionized water, read-out: Solubility of neat topiramate measured in de-ionized water) and 9.8 to 13 mg/mL (≈ 28.9 to 38.3 mM) in data set [1] (water, read-out: solubility). Further, in data set [2], the solubility in water entry was “about 9.8 mg/ml”.

These data come from patent US20050058707A1, “Uniform delivery of topiramate over prolonged period of time with enhanced dispersion formulation” (priority 2003, published 2005).
